Read-outs that look alike come from different tables or passages of the source.
Key:
[1] = cmc determination with probe solutions in NMP, fluorescence spectrophotometer; type: physicochemical; details: Supreme Brilliant White washing water with fluorescent brightener; probe dissolved in NMP
[2] = as above; type: physicochemical; details: Supreme Clean solution (directly prepared); probe dissolved in NMP; range read from fluorescence intensity-concentration curve
[3] = cmc by fluorescence probe method, customized photoelectric detector (CD detector); type: physicochemical; details: aqueous solution of Supreme Biotechnology (Bright White) laundry detergent; label = solvent for probe
Experimental: Here, the liquid to be tested is Supreme Biotechnology (Brilliant White) detergent solution (ZZLB), and the detector is a customized photoelectric detector (CD detector).
In addition, due to the use of the CUR-NMP single organic solvent composition system, the solvent addition amount in Table 6 can be considered equivalent to the addition amount of the probe solution. The cmc value is determined using the fitted line intersection method, i.e., according to the determination results of a fluorescence spectrophotometer, an appropriate wavelength is selected within the corresponding fluorescence emission peak range, and a fluorescence response value-concentration curve is plotted with detergent concentrations on the x-axis and fluorescence intensity on the y-axis. The plateau region and the rising region of the curve are fitted by linear regression, respectively, and the intersection point of two fitted lines is obtained. The surfactant concentration on the x-axis corresponding to the intersection point is the cmc concentration (measured value).
The fluorescence photoelectric detector used in the present invention includes any of the following: • 1) including excitation filter (430 nm), dichroic mirror, and emission filter (495 nm), light source: peak wavelength of 430 nm, waveband of 420 to 440 nm, working current: 0.02 A, working voltage: 5V, the acceptable wavelength range of detector of at least 480-510 nm; • 2) including excitation filter (550 nm), dichroic mirror, and emission filter (638 nm), light source: peak wavelength of 550 nm, waveband of 540 to 560 nm, working current: 0.02 A, working voltage: 5V, the acceptable wavelength range of detector of at least 620-650 nm.
Referring to Examples 1 and 3, Supreme Biotechnology (Brilliant White) detergent solution was prepared. […] Determination was carried out using a CD detector in the above two cases.

[4] = cmc of detergent solution by fluorescence probe method, fluorescence spectrophotometer (Example 1); type: physicochemical
[5] = solvent, cited from earlier work
[6] = document value; cited from earlier work
[7] = Hansen solubility parameters (HSP), δ difference and HSP distance Ra
[8] = cmc by surface tension method; type: physicochemical; details: NMP without probe
From the text: Based on the above speculation, the inventors also observed the change in the cmc value at different addition amounts of the NMP solvent (without the probe) used in the CUR-NMP probe solution using the surface tension method. When the addition amount of NMP is less than 1000, the cmc value determined is affected to some extent, but the effect is small. When the addition amount of NMP is less than 400, the cmc value determined is basically not affected, and the result is basically consistent with the result determined by fluorescence spectrometry and conforms to the inference.
FIG. 5 is a graph showing the curves obtained by determining the cmc of the above various brands of detergent solutions using the surface tension method.

[9] = aqueous solution of Supreme Biotechnology (Bright White) laundry detergent, label = solvent for probe
[10] = aqueous solution of Supreme Biotechnology (Bright White) laundry detergent, label = solvent for probe (auxiliary agent)
[11] = HSP distance between solvent and pyrene
[12] = HSP distance between solvent and rhodamine B
[13] = total δ of solvent minus total δ of pyrene
[14] = total δ of solvent minus total δ of rhodamine B
[15] = HSP distance between solvent and curcumin (CUR)
[16] = total δ of solvent minus total δ of curcumin (CUR)

Row | δ difference [7, 16] | Molecule | Flash point [5] | Viscosity [5] | Dispersion δD [6] | Hydrogen bonding δH [6] | Polarity δH [6] | Total δ [6] | Volatility/Boiling point [5] | other results
1 |  | COc1cc(/C=C/C(=O)CC(=O)/C=C/c2ccc(O)c(OC)c2)ccc1O [CUR, curcumin] |  |  |  |  |  |  |  | cmc value range [1]: 0.2 to 0.3 g/L; cmc value range [2]: 0.05 to 0.1 g/L
2 |  | Polyethylene glycol 200 [Polyethylene glycol 200 (PEG200)] | >100 °C | (22-23) mPa · s |  |  |  |  |  | cmc value, CUR, By Customized fluorescence photoelectric detector [3]: 0.113 g/L; cmc value, NR, By Customized fluorescence photoelectric detector [3]: 0.069 g/L; cmc value, NR, By Fluorescence spectrophotometer [4, 9]: 0.062 g/L; cmc value, CUR, By Fluorescence spectrophotometer [4, 10]: 0.094 g/L
3 |  | Water |  | 1.002 mPa · s | 15.5 (MPa)^1/2 | 42.3 (MPa)^1/2 | 16 (MPa)^1/2 | 47.807 (MPa)^1/2 |  | 
4 |  | CC(C)=O [Acetone] | −17.8 °C | 0.316 mPa · s | 15.5 (MPa)^1/2 | 7 (MPa)^1/2 | 10.4 (MPa)^1/2 | 19.935 (MPa)^1/2 | 56 °C | Ra [7, 11]: 16.806 (MPa)^1/2; Ra [7, 12]: 13.727 (MPa)^1/2; δ difference [7, 13]: −2.974 (MPa)^1/2; δ difference [7, 14]: −10.518 (MPa)^1/2
5 | 0.380 (MPa)^1/2 | CN1CCCC1=O [N-methylpyrrolidone (NMP), N-methylpyrrolidone] | 85 °C | 1.65 mPa · s | 18 (MPa)^1/2 | 7.2 (MPa)^1/2 | 12.3 (MPa)^1/2 | 22.959 (MPa)^1/2 | 204 °C | cmc value, CUR, By Customized fluorescence photoelectric detector [3]: 0.116 g/L; cmc value, NR, By Customized fluorescence photoelectric detector [3]: 0.066 g/L; Ra [7, 15]: 10.950 (MPa)^1/2; Ra [7, 11]: 14.343 (MPa)^1/2; Ra [7, 12]: 12.708 (MPa)^1/2; δ difference [7, 13]: 0.050 (MPa)^1/2; δ difference [7, 14]: −7.494 (MPa)^1/2; cmc ([8]; solvent content 0 (v organic solvent/v water)): 0.067 g/L; cmc ([8]; solvent content 0.4%): 0.076 g/L; cmc ([8]; solvent content 1%): 0.073 g/L; cmc ([8]; solvent content 2%): 0.101 g/L; cmc ([8]; solvent content 4%): 0.082 g/L; cmc ([8]; solvent content 10%): 0.131 g/L; cmc ([8]; solvent content 20%): 0.22 g/L; cmc value, NR, By Fluorescence spectrophotometer [4, 9]: 0.088 g/L; cmc value, CUR, By Fluorescence spectrophotometer [4, 10]: 0.100 g/L
6 |  | CC#N [Acetonitrile] | 5.6 °C | 0.375 mPa · s | 15.3 (MPa)^1/2 | 6.1 (MPa)^1/2 | 18 (MPa)^1/2 | 24.399 (MPa)^1/2 | 82 °C | 
7 |  | Cc1ccccc1 [Toluene] | 4.4 °C | 0.587 mPa · s | 18 (MPa)^1/2 | 2 (MPa)^1/2 | 1.4 (MPa)^1/2 |  |  | 
8 |  | CC(O)CCO (stereo not drawn) [1,3-butanediol] | 121 °C | 130.3 mPa · s |  |  |  |  |  | Viscosity ([5]; listed as 1,3-butanediol (1,3-BDO)): 130 mPa · s
9 |  | CCN(CC)c1ccc2c(-c3ccccc3C(=O)O)c3ccc(=[N+](CC)CC)cc-3oc2c1 [RhB, rhodamine B, reference compound] |  |  | 16.7 (MPa)^1/2 | 18.5 (MPa)^1/2 | 17.5 (MPa)^1/2 | 30.453 (MPa)^1/2 |  | cmc value range [1]: 0.3 to 1 g/L; cmc value range [2]: 0.1 to 0.15 g/L
10 |  | CCOCC [Ether] |  |  | 14.5 (MPa)^1/2 | 4.6 (MPa)^1/2 | 2.9 (MPa)^1/2 | 15.486 (MPa)^1/2 |  | Ra [7, 11]: 16.064 (MPa)^1/2; Ra [7, 12]: 20.633 (MPa)^1/2; δ difference [7, 13]: −7.423 (MPa)^1/2; δ difference [7, 14]: −14.967 (MPa)^1/2
11 |  | CCN(CC)c1ccc2nc3c4ccccc4c(=O)cc-3oc2c1 [NR, Nile red] |  |  |  |  |  |  |  | cmc value range [1]: 0.2 to 0.3 g/L; cmc value range [2]: 0.05 to 0.1 g/L
12 |  | c1ccc(Nc2cccc3ccccc23)cc1 [NPN, N-phenyl-1-naphthylamine] |  |  |  |  |  |  |  | cmc value range [2]: 0.02 to 0.05 g/L
13 | 0.159 (MPa)^1/2 | CCN1CCCC1=O [N-ethylpyrrolidone (NEP), N-ethylpyrrolidone] | 76.1 °C |  | 18 (MPa)^1/2 | 7 (MPa)^1/2 | 12 (MPa)^1/2 | 22.738 (MPa)^1/2 | 218 °C | 
14 |  | OCCO [Ethylene glycol] |  |  |  |  |  |  |  | cmc value, CUR, By Customized fluorescence photoelectric detector [3]: 0.121 g/L; cmc value, CUR, By Fluorescence spectrophotometer [4]: 0.102 g/L; cmc value, NR, By Fluorescence spectrophotometer [4]: 0.091 g/L
15 |  | CCCCOC(=O)c1ccccc1C(=O)OCCCC [Dibutyl phthalate] | 171 °C | 9.72 mPa · s | 17.8 (MPa)^1/2 | 4.1 (MPa)^1/2 | 8.6 (MPa)^1/2 | 20.189 (MPa)^1/2 | 339 °C | 
16 | 13.583 (MPa)^1/2 | OCC(O)CO [Glycerol] |  |  | 17.4 (MPa)^1/2 | 29.3 (MPa)^1/2 | 12.1 (MPa)^1/2 | 36.162 (MPa)^1/2 |  | Ra [7, 15]: 17.614 (MPa)^1/2
17 | 2.225 (MPa)^1/2 | CCOC(=O)CO [Ethyl glycolate] | 62 °C |  |  |  |  |  | 158 °C | Ra [7, 15]: 14.383 (MPa)^1/2
18 |  | c1cc2ccc3cccc4ccc(c1)c2c34 [PYR, pyrene, reference compound] |  |  | 22.5 (MPa)^1/2 | 4 (MPa)^1/2 | 1.6 (MPa)^1/2 | 22.909 (MPa)^1/2 |  | cmc value range [1]: 0.03 to 0.1 g/L; cmc value range [2]: 0.05 to 0.2 g/L
19 |  | CN(C)C=O [Dimethylformamide (DMF), Dimethylformamide] | 58 °C | 0.802 mPa · s | 17.4 (MPa)^1/2 | 11.3 (MPa)^1/2 | 13.7 (MPa)^1/2 | 24.862 (MPa)^1/2 |  | 
20 | 4.096 (MPa)^1/2 | C[S+](C)[O-] [Dimethyl sulfoxide] |  |  | 18.4 (MPa)^1/2 | 10.2 (MPa)^1/2 | 16.4 (MPa)^1/2 | 26.675 (MPa)^1/2 |  | Ra [7, 15]: 13.383 (MPa)^1/2
21 | −0.382 (MPa)^1/2 | CCOCCOCCO [Diethylene glycol monoethyl ether (DGME), Diethylene glycol monoethyl ether] | 94 °C | 3.85 mPa · s | 16.1 (MPa)^1/2 | 12.2 (MPa)^1/2 | 9.2 (MPa)^1/2 | 22.197 (MPa)^1/2 | 202 °C | cmc value, CUR, By Customized fluorescence photoelectric detector [3]: 0.114 g/L; cmc value, NR, By Customized fluorescence photoelectric detector [3]: 0.074 g/L; Ra [7, 15]: 6.386 (MPa)^1/2; Ra [7, 11]: 16.995 (MPa)^1/2; Ra [7, 12]: 10.489 (MPa)^1/2; δ difference [7, 13]: −0.712 (MPa)^1/2; δ difference [7, 14]: −8.256 (MPa)^1/2; cmc value, NR, By Fluorescence spectrophotometer [4, 9]: 0.089 g/L; cmc value, CUR, By Fluorescence spectrophotometer [4, 10]: 0.086 g/L
22 |  | Cc1cc(=O)oc2c3c4c(cc12)CCCN4CCC3 [C480, coumarin 480] |  |  |  |  |  |  |  | cmc value range [1]: 0.3 to 1 g/L; cmc value range [2]: 0.05 to 0.2 g/L

Row | Molecule | δ difference [7, 16] | Flash point [5] | Viscosity [5] | Dispersion δD [6] | Hydrogen bonding δH [6] | Polarity δH [6] | Total δ [6] | Volatility/Boiling point [5] | other results
23 | OCCOc1ccccc1 [Ethylene glycol monophenyl ether] | −0.207 (MPa)^1/2 | 121 °C | 30.5 mPa · s | 17.8 (MPa)^1/2 | 12.2 (MPa)^1/2 | 5.9 (MPa)^1/2 | 22.372 (MPa)^1/2 | 245 °C | Ra [7, 15]: 2.858 (MPa)^1/2
